Results: patent publication US20240352012A1, “PAN-CASPASE INHIBITORS” (GEORGE MASON UNIVERSITY, priority 2023, published 2024)
pIC50: −log10 of the molar value.

Tests used:
Caspase 3 [1] = molecular target: T1, Caspase 3 (Homo sapiens, UniProt P42574)
T1 sequence (P42574 29-175 limits assumed): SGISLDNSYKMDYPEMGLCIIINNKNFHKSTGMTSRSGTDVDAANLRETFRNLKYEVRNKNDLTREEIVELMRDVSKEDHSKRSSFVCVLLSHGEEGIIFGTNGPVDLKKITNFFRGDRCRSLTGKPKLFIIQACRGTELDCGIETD
T1 sequence (P42574 176-277 limits assumed): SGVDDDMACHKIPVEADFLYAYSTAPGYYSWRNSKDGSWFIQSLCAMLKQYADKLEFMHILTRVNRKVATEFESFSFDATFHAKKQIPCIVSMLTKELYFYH
Description: (§1) Caspase 3 screening assays were performed similar to the assays described by Okun et al. [61]. […] The direct fluorometric enzyme assay was performed in a 96 well plate which was read in a temperature-controlled plate reader equipped with a 400-nm excitation filter and 505-nm emission filter. The fluorescence was read every one minute for 60 minutes.
(§2) A volume of 1 μL of DMSO solution was added to 24 μL H2O to produce a final volume of 25 μL/well in a 96 well plate. A volume of 2.5 μL of the Active caspase 3 was added. 2) A positive inhibition control was prepared by adding 1 μL of the caspase 3 Inhibitor (Z-DEVD-FMK, provided in the kit) instead of the tested compounds. 3) The other positive inhibition control was prepared by adding 1 μL of the caspase 3/7 Inhibitor (Compound C2, purchased from ApexBio company A1925) instead of the tested compounds. 4) A negative inhibition control was prepared using pure DMSO without the inhibitor. A volume of 1 μL of pure DMSO to 24 μL H2O to a final volume of 25 μL/well. 5) Master Mix was prepared for each assay containing the follows: a. 22.5 μL 2× Reaction Buffer (containing 10 mM DTT). b. 2.5 μL of the 1 mM Ac-DEVD-AFC substrate (50 μM final concentration). 6) Master Mix was mixed well then 22.5 μL of the Master Mix was added quickly to each well to start the reaction. 7) Samples were read in Gemini EM fluorescence Microplate reader with a 400 nm excitation wavelength and 505 nm emission wavelength every 1 minute for duration of 1 hour at 37° C. 8) Data was exported in an Excel spread sheet format and processed to determine the % inhibition compared to the controls in each plate. The IC50 was calculated using Graphpad PRISM 7 software.
(§3) All designed compounds were screened at a fixed concentration of 10 PM.

Caspase 1 = molecular target: T2, Caspase 1 (Homo sapiens, UniProt P29466); assay: Caspase 1 inhibitor screening and IC50 assay (direct fluorometric enzyme assay); format: biochemical; settings: calculated by Graphpad PRISM 7; read-out: IC50 (nM) against Caspase 1
T2 construct: purchased Raybiotech Company 68FL-Casp1-S200
T2 sequence (P29466 120-297 limits assumed): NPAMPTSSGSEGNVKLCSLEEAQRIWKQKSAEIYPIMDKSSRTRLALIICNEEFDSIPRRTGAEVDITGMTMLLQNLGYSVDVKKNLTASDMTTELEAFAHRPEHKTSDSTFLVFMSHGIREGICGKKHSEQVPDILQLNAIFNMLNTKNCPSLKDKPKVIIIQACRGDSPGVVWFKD
T2 sequence (P29466 317-404 limits assumed): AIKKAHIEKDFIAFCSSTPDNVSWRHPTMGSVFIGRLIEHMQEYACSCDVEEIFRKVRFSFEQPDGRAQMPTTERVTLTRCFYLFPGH
Description: Caspase 3 screening assays were performed similar to the assays described by Okun et al. [61]. The caspase 3 inhibitor drug screening kits were purchases from Raybiotech Company (Caspase 3: Item number is 68SR-Casp3S100), (Caspase 7: Item number is 68SR-Casp7-S100), and (Caspase 1: Item number is 68FL-Casp1-S200). The direct fluorometric enzyme assay was performed in a 96 well plate which was read in a temperature-controlled plate reader equipped with a 400-nm excitation filter and 505-nm emission filter. The fluorescence was read every one minute for 60 minutes.

Caspase 7 = molecular target: T3, Caspase 7 (Homo sapiens, UniProt P55210); assay: biochemical
T3 sequence (P55210 24-198 limits assumed): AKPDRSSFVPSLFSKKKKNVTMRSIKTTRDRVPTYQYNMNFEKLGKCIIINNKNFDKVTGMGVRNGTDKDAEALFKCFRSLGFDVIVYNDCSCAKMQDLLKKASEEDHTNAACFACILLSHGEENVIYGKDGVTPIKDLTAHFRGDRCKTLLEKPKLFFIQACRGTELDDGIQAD
T3 sequence (P55210 207-303 limits assumed): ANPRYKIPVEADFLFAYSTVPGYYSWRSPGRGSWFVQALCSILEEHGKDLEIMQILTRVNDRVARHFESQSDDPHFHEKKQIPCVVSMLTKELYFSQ

Caspase 3 [2] = molecular target: T1, Caspase 3; assay: biochemical
Description: as §1, §2, §3

| SMILES | inhibition (Caspase 3 [1]) [%] | IC50 (Caspase 1) [nM] | pIC50 (Caspase 7) | pIC50 (Caspase 3 [2]) |
| --- | --- | --- | --- | --- |
| Cc1cc(N2C(=O)c3c(C)nc4ccc(F)cc4c3C2=O)c2ccccc2n1 [Compound F4, 8-fluoro-4-methyl-2-(2-methylquinolin-4-yl)-1H,2H,3H-pyrrolo[3,4-c]quinoline-1,3-dione] | ~30 | – | – | – |
| Cc1cc(N2C(=O)c3c(C)nc4ccccc4c3C2=O)c2ccccc2n1 [Compound H4, 4-methyl-2-(2-methylquinolin-4-yl)-1H,2H,3H-pyrrolo[3,4-c]quinoline-1,3-dione] | ~30 | – | – | – |
| Cc1nc2ccccc2c2c1C(=O)N(c1ccc(I)cc1)C2=O [Compound H11, 2-(4-iodophenyl)-4-methyl-1H,2H,3H-pyrrolo[3,4-c]quinoline-1,3-dione] | ~25 | – | – | – |
| Cc1ccc(N2C(=O)c3c(C)nc4ccccc4c3C2=O)cc1 [Compound H13, 4-methyl-2-(4-methylphenyl)-1H,2H,3H-pyrrolo[3,4-c]quinoline-1,3-dione] | ~25 | – | – | – |
| Cc1nc2ccc(S(=O)(=O)N3CCOCC3)cc2c2c1C(=O)N(c1ccc(I)cc1)C2=O [MO11, 2-(4-iodophenyl)-4-methyl-8-(morpholine-4-sulfonyl)-1H,2H,3H-pyrrolo[3,4-c]quinoline1,3-dione] | – | – | – | 6.52 to 7.00 |
| Cc1ccc(N2C(=O)c3c(C)nc4ccc(S(=O)(=O)N5CCOCC5)cc4c3C2=O)cc1 [MO13, 4-methyl-2-(4-methylphenyl)-8-(morpholine-4-sulfonyl)-1H,2H,3H-pyrrolo[3,4-c]quinoline1,3-dione] | – | 361 | 6.84 | 6.78 |

Other lines, results leading:

| inhibition (Caspase 3 [1]) [%] | IC50 (Caspase 1) [nM] | pIC50 (Caspase 7) | pIC50 (Caspase 3 [2]) | SMILES |
| --- | --- | --- | --- | --- |
| – | 178 | 7.45 | 6.13 | Cc1cc(N2C(=O)c3c(C)nc4ccc(S(=O)(=O)N5CCOCC5)cc4c3C2=O)c2ccccc2n1 [MO4, 4-methyl-2-(2-methylquinolin-4-yl)-8-(morpholine-4-sulfonyl)-1H,2H,3H-pyrrolo[3,4c]quinoline-1,3-dione] |
| – | 261 | 6.39 | 6.11 | C#Cc1cccc(N2C(=O)c3c(C)nc4ccc(S(=O)(=O)N5CCCCC5)cc4c3C2=O)c1 [PE5, 2-(3-ethynylphenyl)-4-methyl-8-(piperidine-1-sulfonyl)-1H,2H,3H-pyrrolo[3,4-c]quinoline1,3-dione] |
| – | – | – | ~5.40 | Cc1nc2ccc(S(=O)(=O)N3CCCC3)cc2c2c(=O)n(-c3ccccc3)[nH]c(=O)c12 [PY6B, 5-methyl-2-phenyl-9-(pyrrolidine-1-sulfonyl)-1H,2H,3H,4H-pyridazino[4,5-c]quinoline-1,4dione] |
